Read-outs that look alike come from different tables or passages of the source.
Columns and labels:
[1] = molecular target: T1, human opioid receptors, Kappa (KOR) (Homo sapiens, UniProt P41145); experiment: GTPγS functional antagonist assay (SPA), kappa receptor, vs U69593; format: biochemical
T1 construct: expressed in transfected cells
Procedure: (§1) An SPA-based GTPgS assay format was developed based on previous opioid (Emmerson et al., J. Pharm Exp Ther 278,1121,1996; Homg et al., Society for Neuroscience Abstracts, 434.6, 2000) and muscarinic (DeLapp et al., JPET 289, 946, 1999) assay formats. Membranes were resuspended in 20 mM HEPES, 100 mM NaCl, 5 mM MgCl2, 1 mM DTT, and 1 mM EDTA. […] of GTPγ[35S], compound, membrane suspension (20 microgram/well), and wheat germ agglutinin coated SPA beads (1 mg/well) were added to clear bottom 96 well assay plates. GDP ([…]) was added to the membrane solution prior to addition to the assay plates. Plates were sealed and incubated for four hours at room temperature then placed in a refrigerator overnight to allow the beads to settle. […] Plates were warmed to room temperature and counted in a Wallac Microbeta scintillation counter. For antagonist assays, specific agonists were added at the following concentrations: (MOR) DAMGO 1 micromolar, (DOR) DPDPE 30 nM, (KOR) U69593 300 nM. Kb's were determined by Cheng-Prusoff equation (Cheng and Prusoff, 22,3099 1973).

[2] = molecular target: T2, human Cytochrome 2D6 (CYP2D6) (Homo sapiens, UniProt P10635); experiment: Assay for inhibition of CYP2D6 activity (human liver microsomes, bufuralol substrate); format: in vitro ADME
T2 construct: from tissue; host or cells: human liver microsomes
Procedure: The reduced potential for inhibition of cytochrome P450 was discovered using a standard assay that monitors the compound's ability to inhibit Cyp2D6 a member of the cytochrome P450 family of enzymes.
Assay for Inhibition of CYP2D6 Activity
The inhibition of human Cytochrome 2D6 (CYP2D6) activity was studied using a validated high through-put screening assay. A 3 uL aliquot of an 8 mM stock solution of compound was delivered to 397 uL of pH 7.4 (50 mM) phosphate buffer resulting in an initial concentration of 60 uM. The compound dose solutions were prepared by serial dilutions to produce concentrations of […]. A 6 mM NaDPH stock solution was prepared by addition of 100 mg of NaDPH to 20 mL of pH 7.4 buffer. A 600 uL aliquot of Human liver Microsomes (HLM-20.0 mg/ml) was added to 20 ml of pH 7.4 phosphate buffer to produce a 0.6 mg/ml solution of HLM. To the HLM mixture was added 120 uL of a 10 mM bufurolol solution (CYP2D6 substrate) producing a final bufuralol concentration of 60 uM. To each assay plate was added 100 uL of the compound dose solutions, 25 uL NaDPH and 25 uL HLM/bufurolol solution. Samples were incubated at 37° C. for 10 minutes and the reaction was quenched with 25 uL of a 2% perchloric acid solution, followed by centrifugation at 3200 rpm for 30 min. The resulting supernatant was assayed for bufurolol concentrations using a Turbo Ion Spray API 150EX MS method. The calculated IC50 value represents the compound concentration that results in a 50% reduction in burfurolol consumption. Table 3 below provides a comparative data for inhibition of CyP2D6.

[3] = molecular target: T3, human opioid receptors, Delta (DOR) (Homo sapiens, UniProt P41143); experiment: GTPγS functional antagonist assay (SPA), delta receptor, vs DPDPE; format: biochemical
T3 construct: expressed in transfected cells
Procedure: as §1

male Long-Evans rats = experiment: Antiorexigenic effect: food consumption in fasted rats; format: in vivo, rat; settings: oral 3 mg/kg; rats fasted 18 hours; over 1 hour, 2 hour and 4 hour periods; vs untreated control
Procedure: Compounds were tested for effects on food consumption in male Long-Evans rats which had been fasted for 18 hours prior to testing. The weight of food consumed was measured for groups of 6 rats treated with test substance and compared to the food consumed by an untreated control group of 6 animals.

[4] = Bioavailability in rat (Table 2); settings: in vivo, read-out: Metabolis Rat (bioavailability)
[5] = molecular target: T4, human opioid receptors, Mu (MOR) (Homo sapiens, UniProt P35372); experiment: GTPγS functional antagonist assay (SPA), mu receptor, vs DAMGO; format: biochemical
T4 construct: expressed in transfected cells
Procedure: as §1

T3 sequence (P41143 whole entry): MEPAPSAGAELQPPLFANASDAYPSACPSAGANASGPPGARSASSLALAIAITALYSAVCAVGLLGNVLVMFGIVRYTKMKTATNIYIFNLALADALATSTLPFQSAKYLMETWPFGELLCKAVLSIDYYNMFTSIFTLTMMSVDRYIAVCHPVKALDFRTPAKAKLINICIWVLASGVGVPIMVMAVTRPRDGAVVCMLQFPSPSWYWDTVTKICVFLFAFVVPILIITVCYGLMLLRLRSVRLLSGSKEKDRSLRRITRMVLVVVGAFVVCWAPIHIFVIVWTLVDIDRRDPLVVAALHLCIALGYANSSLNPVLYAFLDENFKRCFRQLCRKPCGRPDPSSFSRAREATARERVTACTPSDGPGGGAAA
T2 sequence (P10635 whole entry): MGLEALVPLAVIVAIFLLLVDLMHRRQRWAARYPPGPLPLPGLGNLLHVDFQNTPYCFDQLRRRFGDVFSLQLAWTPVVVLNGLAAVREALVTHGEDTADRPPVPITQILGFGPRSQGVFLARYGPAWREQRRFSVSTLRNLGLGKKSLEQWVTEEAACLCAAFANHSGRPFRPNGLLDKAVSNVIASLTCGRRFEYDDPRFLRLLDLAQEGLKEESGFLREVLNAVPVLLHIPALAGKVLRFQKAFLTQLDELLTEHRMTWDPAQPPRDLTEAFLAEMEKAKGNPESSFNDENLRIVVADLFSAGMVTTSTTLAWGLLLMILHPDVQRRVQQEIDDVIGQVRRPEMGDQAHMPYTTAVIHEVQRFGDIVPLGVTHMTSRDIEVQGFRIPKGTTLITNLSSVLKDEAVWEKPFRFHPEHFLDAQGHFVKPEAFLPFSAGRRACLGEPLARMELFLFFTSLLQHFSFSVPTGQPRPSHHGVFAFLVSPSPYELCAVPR
T4 sequence (P35372 whole entry): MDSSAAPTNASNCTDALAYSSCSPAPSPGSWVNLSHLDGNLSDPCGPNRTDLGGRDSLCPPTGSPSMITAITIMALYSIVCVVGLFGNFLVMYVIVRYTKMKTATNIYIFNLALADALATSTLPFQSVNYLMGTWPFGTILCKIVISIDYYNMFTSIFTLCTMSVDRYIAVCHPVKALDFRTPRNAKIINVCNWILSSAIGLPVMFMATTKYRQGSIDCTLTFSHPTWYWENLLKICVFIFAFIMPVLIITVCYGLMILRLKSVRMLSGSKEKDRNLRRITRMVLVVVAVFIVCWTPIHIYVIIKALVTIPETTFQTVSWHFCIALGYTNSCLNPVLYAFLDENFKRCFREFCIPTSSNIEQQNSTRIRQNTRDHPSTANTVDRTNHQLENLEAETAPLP
T1 sequence (P41145 whole entry): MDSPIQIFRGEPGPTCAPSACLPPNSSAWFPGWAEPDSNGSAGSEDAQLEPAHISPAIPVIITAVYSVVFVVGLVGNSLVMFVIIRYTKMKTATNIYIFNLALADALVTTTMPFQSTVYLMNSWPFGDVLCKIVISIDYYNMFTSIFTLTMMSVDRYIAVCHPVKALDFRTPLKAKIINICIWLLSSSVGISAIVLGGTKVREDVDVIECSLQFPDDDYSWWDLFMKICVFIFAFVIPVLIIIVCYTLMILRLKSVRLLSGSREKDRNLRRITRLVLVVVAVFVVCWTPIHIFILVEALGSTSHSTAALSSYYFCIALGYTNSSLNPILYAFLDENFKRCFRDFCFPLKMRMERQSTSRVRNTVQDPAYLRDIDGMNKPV

What does the source list for `C[C@H]1CN(CC[C@H](O)C2CCCCC2)CC[C@@]1(C)c1cccc(C(N)=O)c1` (stereo in doubt) [(I), 3-[1-(3-Cyclohexyl-3-hydroxy-propyl)-3,4-dimethyl-piperidin-4-yl]-benzamide]?
Kb [1]: 1.93 nM; IC50 ([2]; human liver microsomes, bufuralol substrate, 37° C., 10 minutes): 39000 nM; times less likely to inhibit the cytochrome P450 enzyme system compared to compound (III) ([2]; versus compound (III) of Table 3): over 4 times; times less likely to cause inhibition of the cytochrome P450 enzyme compared to compound (II) ([2]; versus prior clinical trial candidate compound (II) of Table 3): ~16 times; Kb [3]: 2.81 nM; inhibition of cumulative food consumed (male Long-Evans rats): statistically significant inhibition; bioavailability [4]: 32%; Kb [5]: 0.12 nM; fold more potent than the compound of formula (II) in GTP-γ-S functional antagonist assay ([5]; versus compound (II) of Table 1, mu, kappa, delta): at least 2 fold

What does the source list for `CCCCCCN1CC[C@@](C)(c2cccc(C(N)=O)c2)[C@@H](C)C1` [(II), reference compound]?
Kb [1]: 4.51 nM; Kb [3]: 8.72 nM; Kb [5]: 0.31 nM

Which Kb ([3]; read-out: In Vitro GTPγ-S human opioid receptors Delta (Kb)) does the source give for `C[C@H]1CN(CC[C@H](O)C2CCCCC2)CC[C@@]1(C)c1cccc(O)c1` [(III)] here?
The Kb was 1.19 nM.

Reference: patent US20050222204A1, “Opioid receptor antagonists” (priority 2002, published 2005)
